From patent publication US5045566A, “Novel imidate insecticides” (ICI Americas Inc., priority 1989, dated 1991)

Experiments:
Format in all cases: in vivo
[1] = test system: Housefly [Musca domestica]; test: Housefly contact mortality in dishes (HF), 48 hours; conditions: μg of test compound per 25 female flies
Summary of the method: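 LC50 (μg compound per 25 female flies) derives from dosage-mortality curves of 48 h kill. Flies, females 1-2 days old, were held 25 per cage over a dish coated with dried acetone deposit, starting at 100 μg per cage and descending.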

[2] = test system: Black Bean Aphid [Aphis fabae (Scop.)]; test: Black bean aphid spray test on nasturtium (BBA), 48 hours; conditions: percent of test compound in sprayed solution
Summary of the method: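 LC50, given as percent test compound in the sprayed liquid, was calculated from dosage-mortality curves using concentrations from 0.05% downward. Sprays in 50:50 acetone-water went to runoff on ~5 cm nasturtiums carrying 25-50 aphids of mixed ages, one day after infestation. Deaths were counted 48 h later under greenhouse conditions.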

[3] = test system: Tobacco Budworm [Heliothis virescens (Fabricius)] larvae; test: Tobacco budworm larvae, contact (TBW-C), 5 days; conditions: percent in solution, second-instar larvae
Summary of the method: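 Cotton cotyledons dipped 2–3 s in compound in 50-50 acetone-water, dried, then infested with 5 second-instar larvae and held 5 days at high humidity. Mortality scored; LC50 from dosage-mortality curves, expressed as percent compound in solution, concentrations from 0.1% downward.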

[4] = test system: Tobacco Budworm [Heliothis virescens (Fabricius)] eggs; test: Tobacco budworm eggs (TBW-E); conditions: percent in solution; 2-day old eggs
Summary of the method: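 2-day eggs on paper towel, acetone dip, 0.1% and below; petri dish with larval diet, 78° F. Mortality read after control hatch and larval feeding. LC50 = % compound in solution, from dose-mortality curve.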

[5] = test system: Beet Armyworm (Spodoptera exigua); test: Beet armyworm leaf dip (BAW), 5 days; conditions: percent in solution; second-instar larvae; five days
Description: The compounds in Tables 1 and 2 above were tested for insecticidal activity using the following testing procedures. LC50 values, based on the results of these tests and calculated according to dosage-mortality curves, are expressed in Table 3.
Beet Armyworm (Spodoptera exigua):
Test compounds were diluted in a 50-50 acetone-water solution. Young leaves of sugar beets (Beta vulgaris) were immersed in the test solutions for 2-3 seconds and placed on a wire screen to dry. The dried leaves were placed in petri dishes containing a moistened filter paper and infested with five second-instar beet armyworm larvae. The dishes were placed in a high humidity chamber. Mortality of the larvae was recorded five days later. Test concentrations ranged from 0.1% downward. The LC-50 values are expressed below in Table 3 under the heading "BAW" in terms of percent of the test compound in solution.

[6] = test system: Cabbage Looper [Trichoplusia ni (Hubner)]; test: Cabbage looper leaf dip (CL), 3-5 days; conditions: percent in solution, second-instar larvae
Summary of the method: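 LC50 values, given as percent test compound in solution, were calculated from dosage-mortality curves. Squash cotyledons were immersed 2-3 s in acetone-water (50-50) dilutions starting at 0.1%, dried on a screen, then infested with five second-instar larvae. Mortality was read 3-5 days on.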

[7] = test system: Aster Leafhopper [Macrosteles fascifrens (Stal)]; test: Aster leafhopper on dipped oat seedlings (LH), 48 hours; conditions: percent in solution, adults/nymphs
Summary of the method: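 LC50 values, given as percent of test compound in the dip solution, were derived from dosage-mortality curves over concentrations from 0.05% downward. Mortality was counted 48 hours after ten leafhopper adults/nymphs were enclosed on treated seedlings. The seedlings were oats, about 10 cm tall, briefly dipped in 50-50 acetone-water.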

[8] = test system: Maize weevil [Sitophilus zeamais (Motschulsky)]; test: Maize weevil on dipped corn seeds (MW), 48 hours; conditions: percent in solution, adult weevils
Summary of the method: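 LC50, given as percent of compound in dipping solution, comes from dosage-mortality curves over concentrations descending from 0.01%. Four corn seeds soaked 2-3 s in 50:50 acetone:water solution were dried and held with 10 adult weevils, about 25° C, mortality read after 48 h.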

Compound | LC50 HF [1] | LC50 BBA [2] | LC50 TBW C (contact) [3] | LC50 TBW E (eggs) [4] | LC50 BAW [5] | LC50 CL [6] | LC50 LH [7] | LC50 MW [8]
Clc1cccc(N=C(OCc2cccc(Oc3ccccc3)c2)C(Cl)Cl)c1 [Compound 1] | 4.8 µg | 0.0003% | 0.06% | 0.05% | 0.009% | 0.005% | > 0.05% | > 0.01%
CC(C)C(=Nc1ccc(Cl)cc1)OCc1cccc(Oc2ccccc2)c1 [Compound 2] | 4.5 µg | 0.0003% | 0.0009% | 0.04% | 0.01% | 0.006% | 0.0003% | 
CC(Cl)(Cl)C(=Nc1ccc(Cl)cc1)OCc1cccc(Oc2ccccc2)c1 [Compound 3] | 50 µg | 0.003% | 0.009% | > 0.1% | 0.015% | 0.012% | > 0.05% | > 0.01%
Clc1ccc(N=C(OCc2cccc(Oc3ccccc3)c2)C(Cl)Cl)c(Cl)c1 [Compound 4] | 100 µg | > 0.05% | 0.05% | > 0.1% | 0.04% | 0.007% | > 0.05% | 
CC(C)C(=Nc1ccc(Cl)c(Cl)c1)OCc1cccc(Oc2ccccc2)c1 [Compound 9] | 14 µg | 0.001% | 0.0008% | 0.02% | 0.0005% | 0.001% | 0.0003% | > 0.01%
Clc1ccc(N=C(OCc2cccc(Oc3ccccc3)c2)C(Cl)Cl)cc1 [Compound 29] | 5 µg | 0.001% | 0.001% | 0.01% | 0.003% | 0.002% | 0.003% | > 0.01%
ClCC(=Nc1ccc(Cl)cc1)OCc1cccc(Oc2ccccc2)c1 [Compound 31] | > 100 µg | 0.05% | 0.01% | > 0.1% | 0.08% | 0.05% | > 0.05% | > 0.01%
CC(Cl)C(=Nc1ccc(Cl)cc1)OCc1cccc(Oc2ccccc2)c1 (stereo not shown) [Compound 33] | 17 µg | 0.003% | 0.0025% | > 0.1% | 0.02% | 0.01% | > 0.05% | > 0.01%
CC(=Nc1ccccc1)OCc1cccc(Oc2ccccc2)c1 [Compound 42] | 45 µg | > 0.05% | > 0.1% | > 0.1% | > 0.1% | > 0.1% | > 0.05% | > 0.01%
CC(C)C(=Nc1cccc(F)c1)OCc1cccc(Oc2ccccc2)c1 [Compound 47] | 10 µg | 0.001% | 0.002% | 0.06% | 0.002% | 0.002% | 0.0003% | 
CC(C)C(=Nc1ccc(F)cc1F)OCc1cccc(Oc2ccccc2)c1 [Compound 52] | 8 µg | 0.001% | 0.004% | > 0.05% | 0.01% | 0.0025% | 0.001% | 
CC(C)C(=Nc1ccc(F)c(F)c1)OCc1cccc(Oc2ccccc2)c1 [Compound 54] | 3.5 µg | 0.001% | 0.001% | 0.017% | 0.004% | 0.0003% | 0.00015% | 
FC(F)(F)c1ccc(N=C(OCc2cccc(Oc3ccccc3)c2)C(Cl)Cl)cc1 [Compound 61] | 29 µg | 0.001% | 0.03% | 0.03% | 0.002% | 0.001% | > 0.05% | > 0.01%
FC(F)(F)Oc1ccc(N=C(OCc2cccc(Oc3ccccc3)c2)C(Cl)Cl)cc1 [Compound 64] | 11 µg | 0.0006% | 0.1% | 0.03% | 0.0025% | 0.0025% | > 0.05% | > 0.01%
CC(C)C(=Nc1ccc(Cl)c(C(F)(F)F)c1)OCc1cccc(Oc2ccccc2)c1 [Compound 71] | 50 µg | 0.001% | 0.0008% | 0.065% | 0.0004% | 0.0006% | 0.002% | 
CC(C)C(=Nc1cc(F)cc(C(F)(F)F)c1)OCc1cccc(Oc2ccccc2)c1 [Compound 77] | 10 µg | 0.001% | 0.0004% | 0.03% | 0.004% | 0.0005% | 0.0002% | > 0.01%
CC(C)C(=Nc1cccc(C(F)(F)F)c1)OCc1ccc(F)c(Oc2ccccc2)c1 [Compound 80] | 4.5 µg | 0.00025% | 0.00075% | 0.005% | 0.0018% | 0.0003% | 0.0001% | 
CC(C)C(=Nc1ccc(Br)c(F)c1)OCc1ccc(F)c(Oc2ccc(F)cc2)c1 [Compound 282] | 16 µg |  | 0.0007% | 0.02% | 0.0025% | 0.00007% |  | 0.008%
CC(C)C(=Nc1ccc2c(c1)OC(C)(C)O2)OCc1ccc(F)c(Oc2ccc(F)cc2)c1 [Compound 283] | 23 µg |  | 0.0009% | 0.016% | 0.0013% | 0.00009% |  | > 0.01%
CC(C)C(=Nc1ccc2c(c1)OC(F)(F)O2)OCc1ccc(F)c(Oc2ccc(F)cc2)c1 [Compound 284] | 39 µg | 0.0003% | 0.0002% |  | 0.0025% | 0.00005% | 0.0003% | 0.0075%
CC(C)C(=Nc1ccc(Br)cc1)OCc1ccc(F)c(Oc2ccc(F)cc2)c1 [Compound 333] | 15 µg | 0.001% | 0.00075% | 0.025% | > 0.1% | 0.00024% |  | > 0.01%
CC(C)C(=Nc1ccc(I)cc1)OCc1ccc(F)c(Oc2ccc(F)cc2)c1 [Compound 335] | 34 µg | 0.0008% | 0.00025% | 0.05% | > 0.1% | 0.00027% |  | > 0.01%
CC(C)C(=Nc1ccc(F)c(Cl)c1)OCc1cc(Oc2ccc(F)cc2)c(F)cc1F [Compound 343] | 40 µg | 0.002% | 0.00025% | > 0.1% | > 0.1% | 0.00027% |  | > 0.01%
CC(C)C(=Nc1ccc2c(c1)OC(F)(F)O2)OCc1cccc(Oc2ccc(Cl)cc2)c1 [Compound 450] | 72 µg |  | 0.0001% | 0.015% | 0.005% | 0.00016% |  | 0.01%
